According to the NIST ThermoML archive (doi:10.1016/j.jct.2010.04.013):

Assay: mn = molality of the nth substance listed, in mol/kg
Conditions: 101 kPa, Liquid; for mass density: Vibrating tube method; for speed of sound: Pulse-echo method

[Ba+2].[O-][Cl+3]([O-])([O-])[O-].[O-][Cl+3]([O-])([O-])[O-] [barium perchlorate] + C[S+](C)[O-]
Conditions | mass density, 293.15 K [kg/m3] | mass density, 298.15 K [kg/m3] | mass density, 303.15 K [kg/m3] | mass density, 313.15 K [kg/m3] | mass density, 323.15 K [kg/m3] | mass density, 333.15 K [kg/m3] | speed of sound, 298.15 K [m/s]
m1 = 0.03102 | 1108.57 | 1103.55 | 1098.53 | 1088.51 | 1078.49 | 1068.47 | –
m1 = 0.04247 | 1111.68 | 1106.66 | 1101.64 | 1091.63 | 1081.62 | 1071.61 | 1485.2
m1 = 0.05458 | 1114.98 | 1109.97 | 1104.95 | 1094.94 | 1084.94 | 1074.94 | 1485.5
m1 = 0.06931 | 1119.03 | 1114.02 | 1109 | 1099 | 1089.01 | 1079.01 | 1486
m1 = 0.08432 | 1123.18 | 1118.17 | 1113.16 | 1103.17 | 1093.18 | 1083.2 | 1486.3
m1 = 0.1063 | 1129.31 | 1124.31 | 1119.3 | 1109.32 | 1099.34 | 1089.37 | 1486.8
m1 = 0.1359 | 1137.67 | 1132.66 | 1127.67 | 1117.69 | 1107.73 | 1097.78 | 1487.8
m1 = 0.1651 | 1146.06 | 1141.06 | 1136.07 | 1126.1 | 1116.15 | 1106.21 | 1488.5
m1 = 0.191 | 1153.55 | 1148.55 | 1143.57 | 1133.61 | 1123.67 | 1113.74 | 1489.3
m1 = 0.222 | 1162.7 | 1157.71 | 1152.72 | 1142.77 | 1132.84 | 1122.92 | 1490.4
m1 = 0.25 | 1171.03 | 1166.04 | 1161.06 | 1151.11 | 1141.21 | 1131.31 | 1491.5

O=S(=O)([O-])C(F)(F)F.O=S(=O)([O-])C(F)(F)F.[Be+2] [beryllium 1,1,1-trifluoromethanesulfonate] + CO
Conditions | mass density, 283.15 K [kg/m3] | mass density, 288.15 K [kg/m3] | mass density, 293.15 K [kg/m3] | mass density, 298.15 K [kg/m3] | mass density, 303.15 K [kg/m3] | mass density, 308.15 K [kg/m3] | mass density, 313.15 K [kg/m3] | speed of sound, 298.15 K [m/s]
m1 = 0.05456 | 809.901 | 805.251 | 800.58 | 795.899 | 791.207 | 786.489 | 781.742 | 1105.4
m1 = 0.06745 | 812.098 | 807.453 | 802.786 | 798.111 | 793.424 | 788.711 | 783.973 | 1106.2
m1 = 0.08472 | 815.041 | 810.402 | 805.745 | 801.074 | 796.384 | 791.686 | 786.956 | 1107.2
m1 = 0.1077 | 818.969 | 814.336 | 809.691 | 805.032 | 800.359 | 795.664 | 790.942 | 1108.5
m1 = 0.1249 | 821.918 | 817.294 | 812.65 | 807.996 | 803.329 | 798.644 | 793.931 | 1109.5
m1 = 0.1421 | 824.885 | 820.267 | 815.629 | 810.983 | 806.316 | 801.638 | 796.936 | 1110.3
m1 = 0.1594 | 827.866 | 823.252 | 818.621 | 813.979 | 809.325 | 804.652 | 799.953 | 1111.1
m1 = 0.177 | 830.948 | 826.34 | 821.715 | 817.077 | 812.425 | 807.764 | 803.073 | 1111.9
